The values below come from patent US20230346831A1, “METHODS FOR TREATING […] USING LOW DOSE CARBON MONOXIDE” (priority 2020, published 2023).

What all share (format): cell-based, human
For one assay, the system named is 22Rv1 cells. Kind of assay: in vitro transwell migration assay. Particulars: 16 hours. The text has this:
(§1) MDA-MB-231/TGL cell lines was obtained from Dr. Joan Massagué (Minn, et al, J. Clin. Invest., 115:(1), 44-55 (2005)). CM cell line was obtained from Dr. Paolo Pozzilli (S. Kobayashi et al., Oncogenesis 8, 16 (2019)). MCF7 breast cancer cells and 8988T pancreatic cancer cells were infected with viruses carrying thymidine kinase/green fluorescent protein/luciferase fusion reporter (TGL), which was obtained from Drs. Inna Serganova and Ronald Blasberg (V. Ponomarev et al., European journal of nuclear medicine and molecular imaging 31, 740-751 (2004)). GFP-positive MCF7/TGL and […] cells were enriched by fluorescence-activated cell sorting. H1975, lung adenocarcinoma cell line, was obtained from ATCC (Manassas, VA). MCF7/TGL/pQ and MCF7/TGL/HA-Bcl-xL cell lines were generated by infecting MCF7/TGL cells with viruses carrying pQXCIP or pQXCIP-HA-Bcl-xL, and selected in the medium containing 0.5-1 µg/ml puromycin. Human CYP1B1cDNA (GeneScript) was transiently transfected into MCF7/TGL, MDA-MB-231/TGL, and 8988T/TGL with Lipofectamine 3000 according to the manufacture’s protocol (Invitrogen, Carlsbad, CA). Cells were treated with CO at 250 ppm for 16 hours. Control air condition was a regular cell culture incubator with 5% CO2. Cells were also treated with 30 µM Hemin (HY-19424, MedChemExpress, Monmouth Junction, NJ) in standard tissue culture incubator or 250 ppm CO.
(§2) 6.5 mm Transwell with 8.0 µm Pore Polycarbonate Membrane Insert (Corning, NY, Cat. No. 3422) was used for the cell migration assay (FIG. 1J). After 16 hours of incubation, cells migrated to the opposite side of the upper chambers were fixed with 4% paraformaldehyde, stained with 0.2% crystal violet for 30 min and counted in five fields under × 20 magnification. In parallel, cells were seeded on 24-well plates for proliferation assay. Cells for proliferation control were fixed with 4% paraformaldehyde, stained with 0.2% crystal violet for 30 min and lysed with methanol to release the crystal violet as described by M. Feoktistova, P. Geserick, & M. Leverkus, Cold Spring Harb Protoc 2016, pdb prot087379 (2016). The optical density was measured at 595 nm (OD595). To supplement heme/hemin in the transwell migration assay, 30 µM hemin (MedChemExpress, Monmouth Junction, NJ, Cat. No. HY-19424) was added to both the cell suspension in the upper chambers and the bottom wells.
(§3) To examine whether CO has an effect on tumor cell migration, in vitro transwell migration assays were performed. Various human cancer cell lines, including 3 types of breast cancer (ER^+: MCF7 cells, HER2^+: HCC1954 cells, triple-negative breast cancer (TNBC): MDA-MB-231 cells), pancreatic ductal adenocarcinoma (PDAC) (8988T cells), pancreatic neuroendocrine tumor (PNET) (CM cells), colon cancer (SW480 cells), prostate cancer (22Rv1 cells), liver cancer (HepG2 cells), and lung cancer (H1975 cells) were seeded in the upper chamber of 8-µm porous polycarbonate membranes. Cell migration through the transwell membrane along a serum gradient (Table 1) after 16 hours in the presence or absence of 250 ppm CO were measured.

A further assay deals with 8988T cells. The experiment in a line: in vitro transwell migration assay. The settings on record: 16 hours.
Source text: as §1, §2, §3

The subject of another assay is CM cells. Kind of assay: in vitro transwell migration assay. The settings on record: 16 hours.
Source text: as §1, §2, §3

Another assay deals with H1975 cells. Kind of assay: in vitro transwell migration assay. The settings on record: 16 hours.
Source text: as §1, §2, §3

A further assay relates to HCC1954 cells. The experiment in a line: in vitro transwell migration assay. The settings on record: 16 hours.
Source text: as §1, §2, §3

The subject of a further assay is HepG2 cells. Kind of assay: in vitro transwell migration assay. Particulars: 16 hours.
Source text: as §1, §2, §3

For a further assay, the system named is MCF7 cells. The experiment in a line: in vitro transwell migration assay. Particulars: 16 hours.
Source text: as §1, §2, §3

For the next assay, the system named is SW480 cells. The experiment in a line: in vitro transwell migration assay. Particulars: 16 hours.
Source text: as §1, §2, §3

A further assay concerns MDA-MB-231 cells. The experiment in a line: in vitro transwell migration assay. Particulars: 16 hours. The text has this: MDA-MB-231/TGL cell lines was obtained from Dr. Joan Massagué (Minn, et al, J. Clin. Invest., 115:(1), 44-55 (2005)). CM cell line was obtained from Dr. Paolo Pozzilli (S. Kobayashi et al., Oncogenesis 8, 16 (2019)). MCF7 breast cancer cells and 8988T pancreatic cancer cells were infected with viruses carrying thymidine kinase/green fluorescent protein/luciferase fusion reporter (TGL), which was obtained from Drs. Inna Serganova and Ronald Blasberg (V. Ponomarev et al., European journal of nuclear medicine and molecular imaging 31, 740-751 (2004)). GFP-positive MCF7/TGL and 8999T/TGL cells were enriched by fluorescence-activated cell sorting. H1975, lung adenocarcinoma cell line, was obtained from ATCC (Manassas, VA). […]
6.5 mm Transwell with 8.0 µm Pore Polycarbonate Membrane Insert (Corning, NY, Cat. No. 3422) was used for the cell migration assay (FIG. 1J). After 16 hours of incubation, cells migrated to the opposite side of the upper chambers were fixed with 4% paraformaldehyde, stained with 0.2% crystal violet for 30 min and counted in five fields under × 20 magnification. […] The optical density was measured at 595 nm (OD595). […]
To examine whether CO has an effect on tumor cell migration, in vitro transwell migration assays were performed. […] Cell migration through the transwell membrane along a serum gradient (Table 1) after 16 hours in the presence or absence of 250 ppm CO were measured. […]

In assay [1] the test system is intracellular heme/hemin levels. The experiment in a line: heme colorimetric assay of intracellular heme. The procedure:
Cells were grown to 75-80% confluence in 10-cm cell culture plates and collected in 1 ml cold PBS by cell scraper. 10 µl of the cells was transferred to a new tube for protein lysate preparation and protein concentration measurement. The rest of the cells were lysed in Heme extraction buffer (acetone: HCl: water = 25: 1.3: 5) as described by J. Hooda, M. Alam, & L. Zhang, J Vis Exp, e51579 (2015). Heme levels were measured using a heme colorimetric assay kit (BioVision, Milpitas, CA, Cat. No. K672-100) and normalized by the protein concentration of each sample.
To investigate whether 250 ppm CO induces hypoxia, HiF1α protein levels in low-dose CO-treated MCF7/TGL and MDA-MB-231/TGL cells were examined. Compared to the control cells grown in a standard tissue culture incubator, HiF1α protein levels were not changed after 250 ppm CO treatment for 16 hours (FIG. 4A). To identify genes and pathways that were affected by 250 ppm CO, RNA-Seq and gene set enrichment analysis (GESA) of MCF7 and MDA-MB-231 cells were performed after 16 hours in a CO incubator or in a regular cell culture incubator. […] To assess the intracellular heme levels affected by low-dose CO treatment, oxidized heme levels in the form of hemin (Fe^3+ state) were measured because free heme (Fe^2+ state) is readily oxidized and cannot be measured. […]

Setting [2] is: 250 ppm CO, serum gradient, vs control air.
[3] abbreviates: 30 µM hemin in upper and lower chambers + 250 ppm CO.

With `[C-]#[O+]` [CO, Carbon monoxide], the “cell migration through the transwell membrane” value in the assay on 22Rv1 cells (setting [2]), in the assay with 8988T cells (setting [2]), in the assay on CM cells (setting [2]), in the assay on H1975 cells (setting [2]), in the assay with HCC1954 cells (setting [2]) and in the assay with HepG2 cells (setting [2]) was “significantly reduced” in each case. The “cell migration through the transwell membrane” value is “significantly reduced” with MCF7 cells (MCF7 cells, 250 ppm CO, serum gradient, vs control air); “significantly reduced” with SW480 cells (setting [2]); “significantly reduced” in the assay with MDA-MB-231 cells (MDA-MB-231 cells, 250 ppm CO, serum gradient, vs control air). Moreover, the intracellular heme/hemin levels result in assay [1] (MCF7 and MDA-MB-231 cells, 250 ppm CO) is recorded as “significantly reduced”.
Regarding Hemin [reference compound], the “cell migration inhibited by 250 ppm CO (reversal by hemin)” value with 22Rv1 cells (setting [3]), in the assay with 8988T cells (setting [3]), in the assay with CM cells (setting [3]), with H1975 cells (setting [3]), in the assay with HCC1954 cells (setting [3]) and in the assay with HepG2 cells (setting [3]) was “significantly reversed” each time. Also, the “cell migration inhibited by 250 ppm CO (reversal by hemin)” value in the assay on MCF7 cells (MCF7/TGL cells, 30 µM hemin in upper and lower chambers + 250 ppm CO) is on record as “significantly reversed”; in the assay on SW480 cells (setting [3]), “significantly reversed”; with MDA-MB-231 cells (MDA-MB-231/TGL cells, 30 µM hemin in upper and lower chambers + 250 ppm CO) it was “significantly reversed”. In assay [1] (30 µM hemin in the medium, CO-treated cells), the “intracellular heme levels with hemin supplement” value was “increased”.
